These compounds were tested against 3-beta-hydroxysteroid-Delta(8),Delta(7)-isomerase (Homo sapiens, UniProt Q15125) (assay: Displacement of [3H]ifenprodil from FLAG-tagged EBP (unknown origin) overexpressing human Expi293F cells measured after 20 mins by Microbeta microplate counter).
Format: cell-based

Chain of 3-beta-hydroxysteroid-Delta(8),Delta(7)-isomerase (Q15125 whole entry): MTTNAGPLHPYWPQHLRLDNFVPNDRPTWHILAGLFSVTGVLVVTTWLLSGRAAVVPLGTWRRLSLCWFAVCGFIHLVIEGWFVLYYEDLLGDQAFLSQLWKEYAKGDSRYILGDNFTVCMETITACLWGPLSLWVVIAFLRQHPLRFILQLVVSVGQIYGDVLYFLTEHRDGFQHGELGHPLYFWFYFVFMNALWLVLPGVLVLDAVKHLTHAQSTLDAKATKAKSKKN

SMILES	IC50 [nM]
Cn1nc(-c2ccccc2)cc1S(=O)(=O)N1CC2(CN(C3CCOCC3)C2)C1	< 15
Cn1nc(C2CCCCC2)cc1S(=O)(=O)N1CC2(CN(C3CCOCC3)C2)C1	< 15
Cc1cc(C(F)(F)F)nc(C)c1S(=O)(=O)N1CC2(CN(Cc3ccn(C)n3)C2)C1	< 15

Continued, values first:

IC50 [nM]	SMILES
< 15	Cn1nc(C2CCC2)cc1S(=O)(=O)N1CC2(CN(C3CCOCC3)C2)C1
< 15	Cc1nc(C(F)(F)C(F)(F)F)ccc1S(=O)(=O)N1CC2(CN(C3CCOCC3)C2)C1
< 15	CCc1cnccc1CN1CC2(C1)CN(S(=O)(=O)c1ccc(C(F)(F)F)nc1C)C2

From ChEMBL document CHEMBL6134913, “Novel Emopamil-Binding Protein Inhibitors for Treating Multiple Sclerosis” (ACS Med Chem Lett, 2025)
